Experimental findings from patent US20170050939A1, “SMALL MOLECULE INHIBITORS OF G PROTEIN COUPLED RECEPTOR 6 KINASE POLYPEPTIDES” (Mayo Foundation for Medical Education and Research, priority 2014, published 2017) are described below.

The structures appear in SMILES notation. pIC50: −log10 of the molar value. Bounds are passed on as bounds.

In the first test the target is T1, GRK6, recombinant full-length GST-tagged human protein (Homo sapiens, UniProt P43250).
T1 construct: GRK6, recombinant full-length GST-tagged human protein; GST
T1 sequence (P43250 whole entry): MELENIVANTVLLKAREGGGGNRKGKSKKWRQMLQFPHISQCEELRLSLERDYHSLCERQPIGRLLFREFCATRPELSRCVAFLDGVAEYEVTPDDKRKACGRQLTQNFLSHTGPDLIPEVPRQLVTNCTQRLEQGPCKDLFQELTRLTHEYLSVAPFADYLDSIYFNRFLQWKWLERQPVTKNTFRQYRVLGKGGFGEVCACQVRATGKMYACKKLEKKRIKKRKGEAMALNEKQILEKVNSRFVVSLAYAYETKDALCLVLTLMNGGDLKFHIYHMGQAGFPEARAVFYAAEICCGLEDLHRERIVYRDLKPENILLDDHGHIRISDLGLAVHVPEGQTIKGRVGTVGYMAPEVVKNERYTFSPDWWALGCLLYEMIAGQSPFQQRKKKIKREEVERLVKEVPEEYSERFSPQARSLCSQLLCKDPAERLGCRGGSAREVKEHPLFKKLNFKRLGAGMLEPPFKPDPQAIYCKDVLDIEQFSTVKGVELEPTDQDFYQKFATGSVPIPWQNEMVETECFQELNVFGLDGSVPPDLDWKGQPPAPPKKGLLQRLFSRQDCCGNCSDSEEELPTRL
Nature of the test: GRK6 IC50 determination (8-point concentration-response). The test is classed as biochemical.
Conditions: not given
The source says: Two hundred forty compounds were further characterized by determining IC50 values in a GRK6 assay. This screen has been previously described in WO 2013/063458, which is incorporated by reference in its entirety herein.
As a reminder, the pIC50 is −log10 of the IC50, conventionally taken in molar units. As to `O=C(O)CSc1nnc(-c2cc(-c3cc(Cl)c4ccccc4c3)cc([N+](=O)[O-])c2)[nH]1` [Compound 233], the pIC50 was 6.68.

As for `O=C(O)CSc1nnc(-c2cccc(C(=O)Nc3ccccc3)c2)[nH]1` [Compound 149], the pIC50 is 4.93.

Regarding `O=C(O)CSc1nnc(-c2cc(-c3cnn(Cc4ccccc4)c3)cc([N+](=O)[O-])c2)[nH]1` [Compound 72], the pIC50 was 6.85.

As to `Cn1c(-c2ccccc2)cc2cc(-c3cc(-c4nnc(SCC(=O)O)[nH]4)cc([N+](=O)[O-])c3)ccc21` [Compound 48], the pIC50 is 6.30.

In the case of `Cc1cncc(-c2cc(-c3ccc4ccccc4c3)cc(-c3nnc(SCC(=O)O)[nH]3)c2)c1` [Compound 34], the pIC50 was 6.46.

Consider `O=C(O)CSc1nnc(-c2cccc(C(=O)Nc3ccc4ncccc4c3)c2)[nH]1` [Compound 161], for which the pIC50 is 4.76.

Regarding `O=C(O)CSc1nnc(-c2cc(-c3cnn(-c4cccc(Cl)c4)c3)cc([N+](=O)[O-])c2)[nH]1` [Compound 71], the pIC50 was 6.88.

Turning to `COc1cc(Cl)cc(-c2cc(-c3nnc(SCC(=O)O)[nH]3)cc([N+](=O)[O-])c2)c1` [Compound 14], the pIC50 was 6.87.

As to `Cc1c(-c2ccc3c(ccn3C)c2)cc(-c2nnc(SCC(=O)O)[nH]2)cc1[N+](=O)[O-]` [Compound 9], the pIC50 was 6.99.

Consider `O=C(O)CSc1nnc(-c2cc(-c3cnn(CC(=O)O)c3)cc([N+](=O)[O-])c2)[nH]1` [Compound 95], for which the pIC50 is 5.69.

In the case of `COc1cc(-c2nnc(SCC(=O)O)[nH]2)ccc1F` [Compound 114], the pIC50 was 5.34.

For the molecule `COc1ccc2cc(-c3cc(-c4nnc(SCC(=O)O)[nH]4)cc([N+](=O)[O-])c3)ccc2c1` [Compound 23], the pIC50 is 6.70.

Turning to `O=C(O)CSc1nnc(-c2c(O)ccc3ccccc23)[nH]1` [Compound 224], the pIC50 is below 4.10.

Turning to `O=C(O)CSc1nnc(-c2cc(-c3ccc4ccccc4c3)cc(-c3cnco3)c2)[nH]1` [Compound 13], the pIC50 was 6.91.

Consider `CC(C)(O)c1ccc(-c2cc(-c3nnc(SCC(=O)O)[nH]3)cc([N+](=O)[O-])c2)cc1` [Compound 61], for which the pIC50 was 6.10.

`O=C(O)CSc1nnc(-c2cc(-c3ccc4ncccc4c3)cc([N+](=O)[O-])c2)[nH]1` [Compound 19]: the pIC50 is 6.74.

In the case of `O=C(O)CSc1nnc(-c2cc(C(=O)NCc3cccnc3)cc([N+](=O)[O-])c2)[nH]1` [Compound 116], the pIC50 is 5.32.

In the case of `O=C(O)CSc1nnc(-c2cccc(C(=O)Nc3ccc4cn[nH]c4c3)c2)[nH]1` [Compound 130], the negative-log IC50 (pIC50) was 5.16.

On to `Cc1ncc(-c2cc(-c3ccc4ccccc4c3)cc(-c3nnc(SCC(=O)O)[nH]3)c2)cn1` [Compound 44], for which the pIC50 is 6.36.

On to `CC(C)Oc1ccc(-c2nnc(SCC(=O)O)[nH]2)cc1[N+](=O)[O-]` [Compound 104], for which the pIC50 is 5.48.

For the molecule `O=C(O)CSc1nnc(-c2cc(-c3ccc4cc[nH]c4c3)cc([N+](=O)[O-])c2)[nH]1` [Compound 12], the pIC50 was 6.91.

Consider `Cc1cc(-c2cc(-c3ccc4ccccc4c3)cc(-c3nnc(SCC(=O)O)[nH]3)c2)cnc1C` [Compound 54], for which the pIC50 is 6.22.

On to `O=C(O)CSc1nnc(-c2cc(-c3cccc(-c4cc[nH]n4)c3)cc([N+](=O)[O-])c2)[nH]1` [Compound 7], for which the pIC50 was 7.03.

For `Cn1ncc2cc(-c3cc(-c4nnc(SCC(=O)O)[nH]4)cc([N+](=O)[O-])c3)ccc21` [Compound 21], the pIC50 is 6.74.

Turning to `COc1cc(-c2nnc(SCC(=O)O)[nH]2)cc(C)c1O` [Compound 103], the pIC50 was 5.48.

Take `O=C(O)CSc1nnc(-c2cc(C(=O)NCc3ccccn3)cc([N+](=O)[O-])c2)[nH]1` [Compound 111]: the pIC50 was 5.36.

For `Cc1c(-c2cc(-c3nnc(SCC(=O)O)[nH]3)cc([N+](=O)[O-])c2)ccc2[nH]c(C(N)=O)cc12` [Compound 235], the pIC50 was 6.45.

Take `O=C(O)CSc1nnc(-c2cccc3cnccc23)[nH]1` [Compound 175]: the pIC50 is 4.53.

On to `O=C(O)CSc1nnc(-c2cccc(C(=O)NCc3ccccc3)c2)[nH]1` [Compound 176], for which the negative logarithm of the IC50 (pIC50) was 4.48.

In the case of `Cc1ccc(-c2cc(-c3ccc4ccccc4c3)cc(-c3nnc(SCC(=O)O)[nH]3)c2)o1` [Compound 63], the pIC50 is 6.08.

For the molecule `Cn1nccc1-c1cc(-c2nnc(SCC(=O)O)[nH]2)cc([N+](=O)[O-])c1` [Compound 88], the pIC50 is 5.98.

As for `CS(=O)(=O)Nc1cccc(-c2cc(-c3nnc(SCC(=O)O)[nH]3)cc([N+](=O)[O-])c2)c1` [Compound 32], the pIC50 is 6.52.

With `CC(C)Oc1ccc(-c2nnc(SCC(=O)O)n2CC(=O)O)cc1[N+](=O)[O-]` [Compound 193], the negative-log IC50 (pIC50) is below 3.70.

As to `O=C(O)CS(=O)(=O)c1nnc(-c2ccccc2)[nH]1` [Compound 210], the pIC50 is below 4.00.

In the case of `Nc1cc(-c2ccc3ccccc3c2)cc(-c2nnc(SCC(=O)O)[nH]2)c1` [Compound 43], the pIC50 is 6.36.

Consider `O=C(O)CSc1nnc(-c2cc(-c3ccc4[nH]cc(-c5ccccc5)c4c3)cc([N+](=O)[O-])c2)[nH]1` [Compound 4], for which the pIC50 was 7.17.

With `O=C(O)CSc1nnc(-c2cc(-c3ccc4[nH]cnc4c3)cc([N+](=O)[O-])c2)[nH]1` [Compound 26], the pIC50 is 6.60.

`O=C(O)CSc1nnc(-c2ccc3occc3c2)[nH]1` [Compound 102]: the pIC50 is 5.51.

For `CC(C)Oc1ccc(-c2nnc(SCC(=O)O)[nH]2)cc1N` [Compound 190], the pIC50 is 4.09.

On to `O=C(O)CSc1nnc(-c2cccc(C(=O)Nc3cccc4[nH]ncc34)c2)[nH]1` [Compound 146], for which the pIC50 is 4.94.

For the molecule `O=C(O)CSc1nnc(-c2cc(Br)cc([N+](=O)[O-])c2)[nH]1` [Compound 90], the pIC50 was 5.87.

For the molecule `CS(=O)(=O)c1cccc(-c2cc(-c3nnc(SCC(=O)O)[nH]3)cc([N+](=O)[O-])c2)c1` [Compound 60], the pIC50 is 6.11.

Regarding `CC(=O)Nc1ccc(-c2cc(-c3nnc(SCC(=O)O)[nH]3)cc([N+](=O)[O-])c2)cc1` [Compound 27], the pIC50 was 6.58.

With `Cc1onc(-c2ccccc2)c1-c1cc(-c2nnc(SCC(=O)O)[nH]2)cc([N+](=O)[O-])c1` [Compound 84], the pIC50 is 6.06.

In the case of `O=C(O)CSc1nnc(-c2cc(C(=O)NCc3ccccc3)cc([N+](=O)[O-])c2)[nH]1` [Compound 94], the pIC50 is 5.80.

For `Cc1nn(C)cc1-c1cc(-c2ccc3ccccc3c2)cc(-c2nnc(SCC(=O)O)[nH]2)c1` [Compound 57], the pIC50 was 6.13.

With `O=C(O)CSc1nnc(-c2cccc3ccccc23)[nH]1` [Compound 174], the pIC50 was 4.55.

Take `CNS(=O)(=O)c1ccc(-c2cc(-c3nnc(SCC(=O)O)[nH]3)cc([N+](=O)[O-])c2)cc1` [Compound 62]: the pIC50 was 6.08.

The same test, now with this note: 20 nM GRK6, 12 μM ATP (Km), 1 μM Peptide 216, 7 h incubation.
Take `O=C(O)CSc1nnc(-c2ccc(-c3cncnc3)cc2)[nH]1` [Compound 134]: the pIC50 is 5.13.

Regarding `CS(=O)(=O)c1cccc(-c2nnc(SCC(=O)O)[nH]2)c1` [Compound 124], the pIC50 was 5.20.

As for `CNS(=O)(=O)c1cccc(-c2nnc(SCC(=O)O)[nH]2)c1` [Compound 165], the pIC50 was 4.72.

As for `CN(C)Cc1ccc(-c2nnc(SCC(=O)O)[nH]2)cc1` [Compound 184], the pIC50 was 4.40.

For the molecule `O=C(O)CSc1nnc(-c2cccc(-c3cccs3)c2)[nH]1` [Compound 81], the pIC50 is 6.12.

With `COc1cc(-c2nnc(SCC(=O)O)[nH]2)cc(O)c1OC` [Compound 168], the pIC50 was 4.68.

As to `O=C(O)CSc1nnc(-c2ccc(O)c([N+](=O)[O-])c2)[nH]1` [Compound 128], the pIC50 was 5.17.

Take `Cc1ccc(-c2nnc(SCC(=O)O)[nH]2)c(O)c1` [Compound 129]: the pIC50 is 5.16.

`O=C(O)CSc1nnc(-c2ccc(O)c(F)c2)[nH]1` [Compound 131]: the pIC50 was 5.14.

Regarding `O=C(O)CSc1nnc(-c2ccc(F)c(F)c2)[nH]1` [Compound 106], the pIC50 is 5.47.

On to `CCN(CC)c1ccc(-c2nnc(SCC(=O)O)[nH]2)c(O)c1` [Compound 173], for which the pIC50 was 4.59.

Consider `COc1ccc(Br)cc1-c1nnc(SCC(=O)O)[nH]1` [Compound 192], for which the pIC50 was 4.06.

As to `O=C(O)CSc1nnc(-c2cccc([N+](=O)[O-])c2)[nH]1` [Compound 92], the pIC50 is 5.85.

Regarding `O=C(O)CSc1nnc(-c2ccc(N3CCCCC3)cc2F)[nH]1` [Compound 180], the pIC50 was 4.45.

Consider `CC(=O)c1cccc(-c2nnc(SCC(=O)O)[nH]2)c1` [Compound 110], for which the pIC50 was 5.39.

With `COc1cc(OC)cc(-c2nnc(SCC(=O)O)[nH]2)c1` [Compound 122], the pIC50 is 5.21.

`CN(CCC#N)c1ccc(-c2nnc(SCC(=O)O)[nH]2)cc1` [Compound 179]: the pIC50 was 4.45.

With `COc1cc(F)c(-c2nnc(SCC(=O)O)[nH]2)c(F)c1` [Compound 181], the pIC50 is 4.41.

For `N#Cc1cccc(-c2cccc(-c3nnc(SCC(=O)O)[nH]3)c2)c1` [Compound 64], the pIC50 is 6.04.

Regarding `O=C(O)CSc1nnc(-c2cc(O)cc(O)c2)[nH]1` [Compound 127], the pIC50 was 5.18.

Regarding `COc1ccc2cc(-c3cccc(-c4nnc(SCC(=O)O)[nH]4)c3)ccc2c1` [Compound 51], the pIC50 is 6.29.

In the case of `O=C(O)CSc1nnc(-c2ccc(O)cc2O)[nH]1` [Compound 147], the pIC50 was 4.94.

For the molecule `O=C(O)CSc1nnc(-c2ccc(N3CCCC3=O)cc2)[nH]1` [Compound 157], the pIC50 was 4.81.

Turning to `COc1ccc(O)c(-c2nnc(SCC(=O)O)[nH]2)c1` [Compound 113], the pIC50 is 5.34.

With `COc1cc(F)cc(-c2nnc(SCC(=O)O)[nH]2)c1` [Compound 98], the pIC50 was 5.58.

With `CCSc1ccc(-c2nnc(SCC(=O)O)[nH]2)cc1` [Compound 141], the pIC50 was 5.05.
